The text below walks through data of patent US20230234941A1, “Salts of Compound and Pharmaceutical Compositions Containing the Same” (Shenzhen Forward Pharmaceuticals Co., Limited., priority 2020, published 2023).

The subject of data set [1] is EGFR activating mutation (such as exon 19 deletion activating mutation, L858R activating mutation, T790M drug resistance mutation and exon 20 insertion …). To be noted: disclosed in CN105461695B; cited from earlier work.
The nature of data set [2]: Solid solubility test (2 h and 24 h). To be noted: for Solubility measured at 2 h: 37° C., based on free base; for XRPD measured at 2 h: state of sample / solid fraction; for XRPD measured at 24 h: 24 h test, state of sample. In kind it is physicochemical.
Data set [3] is described as follows: Solid storage stability test. The class given is physicochemical. The settings on record: for Original morphology / Original purity: original solid before storage; for chemical and physical stability after storage (summary): solid/25° C./60% RH/open/1 week and/or solid/60° C./closed container/1 week.
Data set [4] in a line: Chemical and physical stability of the salts at the end of the preparation. The class given is physicochemical. The source says:
It is crucial for drug development whether the salts obtained as above have chemical and physical stability at the end of the preparation. The chemical and physical stability of the salts at the end of the preparation includes: […]

[5] abbreviates: FaSSIF-V1 (pH 6.5) (Test ES4, partly printed ES1).
Setting [6] is: Test ES1: 0.1N HCl solution (pH 1.0).
Where [7] appears, read: Test ES2: 50 mM phosphate buffer (pH 4.5).
The mark [8] stands for this setting: Test BS1: solid/25° C./60% RH/open/1 week.
[9] abbreviates: listed as 2 eq. hydrochloride salt.
Setting [10] is: listed as amorphous 2 eq. hydrochloride salt.
Setting [11] is: solid/60° C./closed container/1 week (Test BS1).
[12] abbreviates: listed as amorphous 1 eq. mesylate salt.
[13] abbreviates: listed as amorphous 1 eq. besylate salt.

For the compound `C=CC(=O)Nc1cc(Nc2ncnc(-c3cn(C)c4ccccc34)n2)c(OC)cc1N(C)CCN(C)C` [compound of formula (I)], the “inhibitory activity against EGFR activating mutation compared with wild-type EGFR (WT EGFR)” value in data set [1] was “significantly higher”.
Turning to `C=CC(=O)Nc1cc(Nc2ncnc(-c3cn(C)c4ccccc34)n2)c(OC)cc1N(C)CCN(C)C` [Example 3], the “pH measured at 2 h” value in data set [2] (setting [5]) is listed as “(6.1)”; in data set [2] (setting [6]), “(0.71”; in data set [2] (setting [7]), “(4.2)”; in data set [2] (Test ES3: FeSSIF-V1 (pH 5.0)) it was “(4.8)”; in data set [2] (Test ES5: SGF (pH 2.0)), “(1.8)”. The “Solubility measured at 2 h” value in data set [2] (setting [5]), in data set [2] (setting [6]), in data set [2] (setting [7]), in data set [2] (Test ES3: FeSSIF-V1 (pH 5.0)) and in data set [2] (Test ES5: SGF (pH 2.0)) was greater than 2000 µg/mL each time. The “XRPD measured at 2 h” value in data set [2] (setting [5]), in data set [2] (setting [6]), in data set [2] (setting [7]), in data set [2] (Test ES3: FeSSIF-V1 (pH 5.0)) and in data set [2] (Test ES5: SGF (pH 2.0)) was “clear solution” in each case. In addition, the Purity in data set [3] (setting [8]) and in data set [3] (setting [11]) was 99.6% each time. Besides, the Original morphology result in data set [3] is “amorphous”. Moreover, the Original purity in data set [3] is on record as 99.9%. For the same compound, the “chemical and physical stability after storage (summary)” value in data set [3] (setting [9]) and in data set [3] (setting [10]) was “physically unstable” throughout. The “physical and chemical stability under storage (in words)” value (from here on “physical and chemical stability”) was “slight color change and showed a certain hygroscopicity (partial agglomeration)” in data set [3] (solid/25° C./60% RH/open/1 week, listed as amorphous 2 eq. hydrochloride salt); “good physical and chemical stability” in data set [3] (solid/60° C./closed container/1 week, listed as amorphous 2 eq. hydrochloride salt). Further, the “chemical and physical stability at the end of the preparation” value was “chemically and physically stable” in data set [4] (setting [9]); “chemically and physically stable” in data set [4] (setting [10]).
In the case of `C=CC(=O)Nc1cc(Nc2ncnc(-c3cn(C)c4ccccc34)n2)c(OC)cc1N(C)CCN(C)C` [Example 4], the “pH measured at 2 h” value is listed as “(6.5)” in data set [2] (setting [5]); “(0.7)” in data set [2] (setting [6]); “(4.5)” in data set [2] (setting [7]); “(4.8)” in data set [2] (Test ES3: FeSSIF-V1 (pH 5.0)); “(2.0)” in data set [2] (Test ES5: SGF (pH 2.0)). Besides, the “Solubility measured at 2 h” value in data set [2] (setting [5]), in data set [2] (setting [6]), in data set [2] (setting [7]), in data set [2] (Test ES3: FeSSIF-V1 (pH 5.0)) and in data set [2] (Test ES5: SGF (pH 2.0)) was greater than 2000 µg/mL throughout. The “XRPD measured at 2 h” value in data set [2] (setting [5]), in data set [2] (setting [6]), in data set [2] (setting [7]), in data set [2] (Test ES3: FeSSIF-V1 (pH 5.0)) and in data set [2] (Test ES5: SGF (pH 2.0)) was “clear solution” in each case. The “Solubility measured at 24 h” value in data set [2] (Test ES3: FeSSIF-V1 (pH 5.0)) and in data set [2] (Test ES4: FaSSIF-V1 (pH 6.5)) was greater than 2000 µg/mL in each case. The “pH measured at 24 h” value in data set [2] (Test ES3: FeSSIF-V1 (pH 5.0)) is given as “(5.0)”; in data set [2] (Test ES4: FaSSIF-V1 (pH 6.5)) it was “(6.6)”. Also, the “XRPD measured at 24 h” value in data set [2] (Test ES3: FeSSIF-V1 (pH 5.0)) and in data set [2] (Test ES4: FaSSIF-V1 (pH 6.5)) was “clear solution” in each case. The Purity in data set [3] (setting [8]) turned out to be 99.8%; in data set [3] (setting [11]), 99.9%. Moreover, the Original morphology entry in data set [3] is on record as “amorphous”. In data set [3], this compound came in with an Original purity of 99.9%. Further, the “chemical and physical stability after storage (summary)” value in data set [3] (listed as 1 eq. mesylate salt) was “chemically and physically stable”; in data set [3] (setting [12]), “chemically and physically stable”. The “physical and chemical stability” value in data set [3] (solid/25° C./60% RH/open/1 week, listed as amorphous 1 eq. mesylate salt) is “good physical and chemical stability”; in data set [3] (solid/60° C./closed container/1 week, listed as amorphous 1 eq. mesylate salt), “good physical and chemical stability”. Moreover, the “chemical and physical stability at the end of the preparation” value was “chemically and physically stable” in data set [4] (listed as 1 eq. mesylate salt); “chemically and physically stable” in data set [4] (setting [12]).
Consider `C=CC(=O)Nc1cc(Nc2ncnc(-c3cn(C)c4ccccc34)n2)c(OC)cc1N(C)CCN(C)C` [Example 6], for which the “pH measured at 2 h” value is given as “(6.5)” in data set [2] (setting [5]); “(0.7)” in data set [2] (setting [6]); “(4.5)” in data set [2] (setting [7]); “(4.8)” in data set [2] (Test ES3: FeSSIF-V1 (pH 5.0)); “(2.1)” in data set [2] (Test ES5: SGF (pH 2.0)). Moreover, the “Solubility measured at 2 h” value in data set [2] (setting [5]), in data set [2] (setting [6]), in data set [2] (setting [7]), in data set [2] (Test ES3: FeSSIF-V1 (pH 5.0)) and in data set [2] (Test ES5: SGF (pH 2.0)) was greater than 2000 µg/mL in each case. Moreover, the “XRPD measured at 2 h” value in data set [2] (setting [5]), in data set [2] (setting [6]), in data set [2] (setting [7]), in data set [2] (Test ES3: FeSSIF-V1 (pH 5.0)) and in data set [2] (Test ES5: SGF (pH 2.0)) was “clear solution” each time. Also, the Purity in data set [3] (setting [8]) worked out at 98.2%; in data set [3] (setting [11]) it was 99.6%. Moreover, the Original morphology result in data set [3] is given as “amorphous”. In data set [3], this compound came in with an Original purity of 99.7%. In addition, the decrease in purity entry in data set [3] (solid/25° C./60% RH/open/1 week) was “about 2%”. In addition, the “chemical and physical stability after storage (summary)” value in data set [3] (listed as 1 eq. besylate salt) and in data set [3] (setting [13]) was “chemically unstable” in each case. Also, the “physical and chemical stability” value in data set [3] (solid/60° C./closed container/1 week, listed as amorphous 1 eq. besylate salt) was “good physical and chemical stability”. Further, the “chemical and physical stability at the end of the preparation” value was “chemically and physically stable” in data set [4] (listed as 1 eq. besylate salt); “chemically and physically stable” in data set [4] (setting [13]).
